Data taken from ChEMBL document CHEMBL1148674, “Morpholin-2-one derivatives as novel selective T-type Ca2+ channel blockers” (Bioorg Med Chem Lett, 2006).

Tests used:
[1] = biological target: Voltage-dependent T-type calcium channel subunit alpha-1H (Homo sapiens) (UniProt O95180); experiment: Ability to block calcium channel T type 3.2v expressed in Xenopus oocytes at 100 uM by two-microelectrode voltage-clamp method; format: functional, cell-based; details: Oocyte
[2] = biological target: Voltage-dependent N-type calcium channel subunit alpha-1B (Homo sapiens) (UniProt Q00975); experiment: Ability to block calcium channel N type 2.2v expressed in HEK293 cells at 10 uM by whole cell patch clamp method; format: functional, cell-based
[3] = biological target: T1, Voltage-dependent T-type calcium channel subunit alpha-1G (Homo sapiens, UniProt O43497); experiment: Ability to block calcium channel T type 3.1v expressed in HEK293 cells at 10 uM by whole cell patch clamp method; format: functional, cell-based
[4] = biological target: T1, Voltage-dependent T-type calcium channel subunit alpha-1G; experiment: Ability to block calcium channel T type 3.1v expressed in HEK293 cells by whole cell patch clamp method; format: functional, cell-based
Homo sapiens = organism: Homo sapiens; experiment: Selectivity for calcium channel N type 2.2v over calcium channel T type 3.1v; format: functional

Voltage-dependent N-type calcium channel subunit alpha-1B (Homo sapiens), sequence (Q00975 whole entry, looked up): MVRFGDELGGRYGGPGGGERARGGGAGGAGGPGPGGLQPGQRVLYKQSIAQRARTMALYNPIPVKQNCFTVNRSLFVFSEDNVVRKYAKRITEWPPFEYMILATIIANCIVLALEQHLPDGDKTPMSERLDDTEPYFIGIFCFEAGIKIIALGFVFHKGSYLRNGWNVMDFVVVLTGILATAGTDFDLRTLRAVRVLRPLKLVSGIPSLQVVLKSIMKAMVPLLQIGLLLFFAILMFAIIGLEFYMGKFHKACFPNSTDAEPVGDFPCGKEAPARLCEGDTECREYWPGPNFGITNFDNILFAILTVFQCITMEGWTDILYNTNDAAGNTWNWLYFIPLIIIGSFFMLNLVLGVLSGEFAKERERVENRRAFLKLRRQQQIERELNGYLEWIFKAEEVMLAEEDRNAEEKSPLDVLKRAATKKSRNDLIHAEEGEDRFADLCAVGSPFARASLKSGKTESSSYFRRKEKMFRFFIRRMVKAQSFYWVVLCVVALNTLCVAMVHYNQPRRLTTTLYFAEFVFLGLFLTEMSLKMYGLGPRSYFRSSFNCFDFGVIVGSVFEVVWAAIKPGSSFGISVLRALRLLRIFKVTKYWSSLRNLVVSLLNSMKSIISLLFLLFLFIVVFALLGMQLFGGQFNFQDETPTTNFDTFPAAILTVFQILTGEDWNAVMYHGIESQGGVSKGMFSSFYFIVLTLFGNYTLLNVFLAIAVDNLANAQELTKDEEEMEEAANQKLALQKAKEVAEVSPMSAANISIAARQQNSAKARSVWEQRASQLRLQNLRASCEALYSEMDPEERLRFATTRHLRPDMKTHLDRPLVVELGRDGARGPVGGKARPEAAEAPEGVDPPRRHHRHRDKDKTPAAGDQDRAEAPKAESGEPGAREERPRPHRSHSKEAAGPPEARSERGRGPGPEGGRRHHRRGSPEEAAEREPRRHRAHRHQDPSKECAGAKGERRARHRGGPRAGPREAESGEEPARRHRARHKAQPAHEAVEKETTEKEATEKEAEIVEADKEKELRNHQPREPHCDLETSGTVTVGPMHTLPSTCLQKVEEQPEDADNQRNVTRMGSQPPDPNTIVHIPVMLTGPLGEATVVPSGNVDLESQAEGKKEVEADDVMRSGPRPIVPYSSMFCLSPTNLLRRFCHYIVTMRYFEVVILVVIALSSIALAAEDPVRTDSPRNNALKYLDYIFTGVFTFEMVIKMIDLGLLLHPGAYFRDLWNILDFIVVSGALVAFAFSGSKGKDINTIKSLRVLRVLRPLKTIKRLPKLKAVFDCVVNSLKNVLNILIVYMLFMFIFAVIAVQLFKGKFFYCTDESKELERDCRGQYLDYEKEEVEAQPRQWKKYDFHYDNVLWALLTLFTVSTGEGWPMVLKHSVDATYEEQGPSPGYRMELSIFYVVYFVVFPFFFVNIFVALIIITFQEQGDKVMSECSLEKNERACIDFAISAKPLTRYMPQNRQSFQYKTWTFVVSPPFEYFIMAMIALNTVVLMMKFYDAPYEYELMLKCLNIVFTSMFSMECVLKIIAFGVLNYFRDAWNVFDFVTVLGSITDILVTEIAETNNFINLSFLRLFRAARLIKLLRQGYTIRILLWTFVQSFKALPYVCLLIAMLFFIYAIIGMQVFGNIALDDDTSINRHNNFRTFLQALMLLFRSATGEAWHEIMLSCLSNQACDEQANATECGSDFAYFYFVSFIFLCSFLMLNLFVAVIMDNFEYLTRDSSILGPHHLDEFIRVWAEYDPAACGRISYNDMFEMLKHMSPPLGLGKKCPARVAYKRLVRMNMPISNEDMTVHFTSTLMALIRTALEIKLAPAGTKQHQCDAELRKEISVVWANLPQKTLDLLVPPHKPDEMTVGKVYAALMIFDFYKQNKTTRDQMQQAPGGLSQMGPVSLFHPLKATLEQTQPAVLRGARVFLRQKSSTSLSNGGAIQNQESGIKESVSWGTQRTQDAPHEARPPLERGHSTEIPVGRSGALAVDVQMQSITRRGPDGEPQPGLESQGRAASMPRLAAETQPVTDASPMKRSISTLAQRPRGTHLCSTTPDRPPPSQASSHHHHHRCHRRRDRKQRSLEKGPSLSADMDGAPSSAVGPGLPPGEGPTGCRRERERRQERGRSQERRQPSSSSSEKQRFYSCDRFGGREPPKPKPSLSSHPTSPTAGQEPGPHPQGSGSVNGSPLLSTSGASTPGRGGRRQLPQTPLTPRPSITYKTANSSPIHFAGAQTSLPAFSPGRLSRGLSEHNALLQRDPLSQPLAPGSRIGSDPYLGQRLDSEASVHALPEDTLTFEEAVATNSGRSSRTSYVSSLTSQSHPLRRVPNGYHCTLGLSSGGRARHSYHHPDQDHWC
T1 sequence (O43497 whole entry): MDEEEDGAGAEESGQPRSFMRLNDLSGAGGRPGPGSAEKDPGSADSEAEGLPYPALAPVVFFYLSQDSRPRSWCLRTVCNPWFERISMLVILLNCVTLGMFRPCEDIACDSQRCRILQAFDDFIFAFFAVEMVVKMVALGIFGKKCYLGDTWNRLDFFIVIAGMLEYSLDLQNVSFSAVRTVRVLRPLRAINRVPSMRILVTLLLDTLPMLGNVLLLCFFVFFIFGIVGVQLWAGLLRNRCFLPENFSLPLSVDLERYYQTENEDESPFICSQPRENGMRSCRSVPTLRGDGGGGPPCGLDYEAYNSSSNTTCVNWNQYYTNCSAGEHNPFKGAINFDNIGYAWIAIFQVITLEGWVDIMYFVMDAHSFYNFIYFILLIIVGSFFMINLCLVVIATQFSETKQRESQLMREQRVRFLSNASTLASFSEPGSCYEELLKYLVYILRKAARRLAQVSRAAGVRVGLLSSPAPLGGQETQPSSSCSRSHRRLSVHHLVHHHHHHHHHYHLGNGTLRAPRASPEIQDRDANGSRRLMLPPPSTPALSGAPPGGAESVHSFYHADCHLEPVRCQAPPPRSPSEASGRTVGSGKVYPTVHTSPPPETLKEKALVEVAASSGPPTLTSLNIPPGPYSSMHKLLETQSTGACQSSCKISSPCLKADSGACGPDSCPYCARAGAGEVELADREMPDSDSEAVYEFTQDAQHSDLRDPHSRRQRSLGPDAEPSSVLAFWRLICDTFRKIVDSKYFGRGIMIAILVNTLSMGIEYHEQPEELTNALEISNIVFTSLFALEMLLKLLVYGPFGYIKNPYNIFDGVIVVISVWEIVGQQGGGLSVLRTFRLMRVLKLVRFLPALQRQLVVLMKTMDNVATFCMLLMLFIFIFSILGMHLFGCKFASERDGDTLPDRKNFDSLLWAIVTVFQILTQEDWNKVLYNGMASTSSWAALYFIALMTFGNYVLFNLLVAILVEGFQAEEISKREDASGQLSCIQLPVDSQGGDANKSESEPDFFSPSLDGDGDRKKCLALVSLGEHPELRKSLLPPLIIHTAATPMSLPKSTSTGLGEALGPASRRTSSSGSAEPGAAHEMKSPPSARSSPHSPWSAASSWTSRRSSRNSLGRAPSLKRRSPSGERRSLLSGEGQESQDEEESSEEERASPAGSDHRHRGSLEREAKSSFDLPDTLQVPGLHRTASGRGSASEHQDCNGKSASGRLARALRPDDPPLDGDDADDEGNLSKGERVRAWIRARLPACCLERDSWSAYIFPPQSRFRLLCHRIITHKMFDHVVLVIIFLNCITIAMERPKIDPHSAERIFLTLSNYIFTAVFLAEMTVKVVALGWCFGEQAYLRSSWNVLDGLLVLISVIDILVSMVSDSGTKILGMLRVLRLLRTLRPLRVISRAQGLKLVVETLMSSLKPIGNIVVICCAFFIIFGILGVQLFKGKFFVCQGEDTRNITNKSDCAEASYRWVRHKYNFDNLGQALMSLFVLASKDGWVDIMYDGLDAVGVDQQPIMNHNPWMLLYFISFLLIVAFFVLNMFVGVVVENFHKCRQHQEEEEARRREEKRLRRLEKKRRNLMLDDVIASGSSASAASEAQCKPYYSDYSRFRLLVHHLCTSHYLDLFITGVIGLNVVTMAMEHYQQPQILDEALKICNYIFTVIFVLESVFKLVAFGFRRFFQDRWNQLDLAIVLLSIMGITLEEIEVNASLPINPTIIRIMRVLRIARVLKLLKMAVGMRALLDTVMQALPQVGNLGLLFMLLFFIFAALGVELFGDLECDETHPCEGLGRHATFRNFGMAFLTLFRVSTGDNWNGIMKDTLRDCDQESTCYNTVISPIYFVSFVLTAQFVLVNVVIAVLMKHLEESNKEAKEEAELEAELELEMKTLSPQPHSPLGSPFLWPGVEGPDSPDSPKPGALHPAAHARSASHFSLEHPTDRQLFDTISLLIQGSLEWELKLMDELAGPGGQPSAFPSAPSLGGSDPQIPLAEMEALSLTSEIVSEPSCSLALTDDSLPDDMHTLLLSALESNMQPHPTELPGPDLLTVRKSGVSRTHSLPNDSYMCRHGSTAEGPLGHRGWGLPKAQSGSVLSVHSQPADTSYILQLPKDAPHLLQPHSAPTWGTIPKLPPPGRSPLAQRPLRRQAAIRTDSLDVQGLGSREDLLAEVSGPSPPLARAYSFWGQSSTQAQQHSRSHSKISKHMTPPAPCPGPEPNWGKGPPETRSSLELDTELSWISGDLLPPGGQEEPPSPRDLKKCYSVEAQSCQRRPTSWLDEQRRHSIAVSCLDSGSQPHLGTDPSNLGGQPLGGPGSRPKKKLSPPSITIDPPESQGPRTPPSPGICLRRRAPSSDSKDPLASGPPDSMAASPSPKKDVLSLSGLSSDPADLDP

SMILES	inhibition [1]	inhibition [2]	inhibition [3]	IC50 [4]	Ratio (Homo sapiens)
O=C1OC[C@H](C(=O)NCc2ccccc2)N[C@H]1Cc1ccc(F)cc1 (relative stereo)	12.3%	–	–	–	–
C[C@H](NC(=O)[C@H]1COC(=O)[C@H](Cc2ccc(Cl)cc2)N1)c1ccccc1	73.3%	4%	79%	1330 nM	19.8
C[C@H](NC(=O)[C@H]1COC(=O)[C@H](Cc2ccc(F)cc2)N1)c1ccccc1	83.6%	11.3%	80.8%	1480 nM	7.2
O=C(NCc1ccccc1)[C@@H]1COC(=O)[C@H](Cc2ccc([N+](=O)[O-])cc2)N1 (relative stereo)	74.8%	7.6%	86.2%	1130 nM	11.3
COc1ccc(C[C@@H]2N[C@@H](C(=O)NCc3ccccc3)COC2=O)cc1 (relative stereo)	16.2%	–	–	–	–
CC(C)[C@@H]1N[C@H](C(=O)NCc2ccccc2)COC1=O (relative stereo)	82%	25.3%	78.8%	990 nM	3.1
CC(C)(C)NC(=O)[C@H]1COC(=O)[C@H](Cc2ccccc2)N1 (relative stereo)	42%	–	–	–	–
CC(C)(C)NC(=O)[C@@H]1COC(=O)[C@H](Cc2ccccc2)N1 (relative stereo)	43%	–	–	–	–
O=C1OC[C@H](C(=O)NCc2ccccc2)N[C@H]1Cc1ccccc1 (relative stereo)	5%	–	–	–	–
C[C@H](NC(=O)[C@@H]1COC(=O)[C@H](Cc2ccc(F)cc2)N1)c1ccccc1	35.6%	–	–	–	–
C[C@H](NC(=O)[C@@H]1COC(=O)[C@H](Cc2ccc([N+](=O)[O-])cc2)N1)c1ccccc1	60.8%	4%	80.2%	2130 nM	20.1
O=C(NC1CCCCC1)[C@@H]1COC(=O)[C@H](Cc2ccccc2)N1 (relative stereo)	76%	9.4%	73.6%	2180 nM	7.8
Cc1ccc(S(=O)(=O)CNC(=O)[C@H]2COC(=O)[C@H](Cc3ccccc3)N2)cc1 (relative stereo)	25%	–	–	–	–
COCC(=O)O[C@]1(CCN(C)CCCc2nc3ccccc3[nH]2)CCc2cc(F)ccc2[C@@H]1C(C)C	–	57.4%	89.8%	–	–
O=C(NCc1ccccc1)[C@@H]1COC(=O)[C@H](Cc2ccc(F)cc2)N1 (relative stereo)	70.9%	7.1%	77.6%	2750 nM	10.9
C[C@H](NC(=O)[C@@H]1COC(=O)[C@H](Cc2ccc(Cl)cc2)N1)c1ccccc1	48.4%	10.9%	64%	1610 nM	5.9
CSCC[C@@H]1N[C@H](C(=O)NCc2ccccc2)COC1=O (relative stereo)	74%	15.4%	75.1%	1860 nM	4.9
C[C@H](NC(=O)[C@H]1COC(=O)[C@H](Cc2ccc(O)cc2)N1)c1ccccc1	27.6%	–	–	–	–
CCC(C)[C@@H]1N[C@H](C(=O)NCc2ccccc2)COC1=O (stereo not given in full)	70%	1.7%	63.4%	1220 nM	37.3
C[C@H](NC(=O)[C@H]1COC(=O)[C@H](Cc2ccc([N+](=O)[O-])cc2)N1)c1ccccc1	25.2%	–	–	–	–
O=C(NCc1ccccc1)[C@@H]1COC(=O)[C@H](Cc2ccccc2)N1 (relative stereo)	87%	4.8%	78.9%	1010 nM	16.4
C[C@H](NC(=O)[C@@H]1COC(=O)[C@H](Cc2ccc(O)cc2)N1)c1ccccc1	45.8%	4.7%	77%	1390 nM	16.4
COc1ccc(C[C@@H]2N[C@H](C(=O)NCc3ccccc3)COC2=O)cc1 (relative stereo)	54.6%	2.5%	74%	2040 nM	29.6
Cc1ccc(S(=O)(=O)CNC(=O)[C@@H]2COC(=O)[C@H](Cc3ccccc3)N2)cc1 (relative stereo)	13%	–	–	–	–
O=C(NCc1ccccc1)[C@@H]1COC(=O)[C@H](Cc2ccc(Cl)cc2)N1 (relative stereo)	73.5%	33.7%	83.6%	450 nM	2.5
O=C1OC[C@H](C(=O)NCc2ccccc2)N[C@H]1Cc1ccc([N+](=O)[O-])cc1 (relative stereo)	6.5%	–	–	–	–
O=C1OC[C@H](C(=O)NC2CCCCC2)N[C@H]1Cc1ccccc1 (relative stereo)	30.3%	–	–	–	–
O=C1OC[C@H](C(=O)NCc2ccccc2)N[C@H]1Cc1ccc(Cl)cc1 (relative stereo)	19.1%	–	–	–	–
